Activity calls are given as the source filed them.
Experiments:
Mus musculus [1] = species on record: Mus musculus; assay: Upregulation of IGF-1 mRNA expression in denervated C57BL/6NCrSlc mouse by RT-PCR analysis; assay type: functional
Mus musculus [2] = species on record: Mus musculus; assay: Downregulation of FOXO1 mRNA expression in denervated C57BL/6NCrSlc mouse by RT-PCR analysis; assay type: functional
Mus musculus [3] = species on record: Mus musculus; assay: Downregulation of MuRF-1 mRNA expression in denervated C57BL/6NCrSlc mouse by RT-PCR analysis; assay type: functional
Mus musculus [4] = species on record: Mus musculus; assay: Effect of PPARgamma mRNA expression in denervated C57BL/6NCrSlc mouse by RT-PCR analysis; assay type: functional, organism-based
Mus musculus [5] = species on record: Mus musculus; assay: Upregulation of Atrogin-1 mRNA expression in denervated C57BL/6NCrSlc mouse by RT-PCR analysis; assay type: functional
Mus musculus [6] = species on record: Mus musculus; assay: Effect of PPARdelta mRNA expression in denervated C57BL/6NCrSlc mouse by RT-PCR analysis; assay type: functional, organism-based
Mus musculus [7] = species on record: Mus musculus; assay: Upregulation of SOD1 mRNA expression in denervated C57BL/6NCrSlc mouse by RT-PCR analysis; assay type: functional
Mus musculus [8] = species on record: Mus musculus; assay: Effect on PGC1a mRNA expression in denervated C57BL/6NCrSlc mouse by RT-PCR analysis; assay type: functional
Mus musculus [9] = species on record: Mus musculus; assay: Antioxidant activity in denervated C57BL/6NCrSlc mouse assessed as […] in GSSG/GSH ratio in gastrocnemius muscle measured after 30 mins; assay type: functional, organism-based
Mus musculus [10] = species on record: Mus musculus; assay: Antioxidant activity in denervated C57BL/6NCrSlc mouse assessed as […] in lipid peroxide level in gastrocnemius muscle measured after 30 mins; assay type: functional, organism-based
Mus musculus [11] = species on record: Mus musculus; assay: Toxicity in denervated C57BL/6NCrSlc mouse assessed as effect on body weight (reference value: 25.74 g); assay type: functional
Mus musculus [12] = species on record: Mus musculus; assay: Suppression of denervation-induced gastrocnemius muscle weight loss in C57BL/6NCrSlc mouse; assay type: functional, organism-based

Measured: Activity

C[C@@H]1O[C@@H](OC[C@H]2O[C@@H](Oc3cc(O)c4c(c3)O[C@H](c3ccc(O)c(O)c3)CC4=O)[C@H](O)[C@@H](O)[C@@H]2O)[C@H](O)[C@H](O)[C@H]1O [ERIOCITRIN]
inactive: Mus musculus [4] | Mus musculus [5] | Mus musculus [6] | Mus musculus [8]
active: Mus musculus [1] | Mus musculus [2] | Mus musculus [3] | Mus musculus [7] | Mus musculus [9] | Mus musculus [10] | Mus musculus [12]
25.37 g: Mus musculus [11]
